Results as given in ChEMBL document CHEMBL4507295 (2021).

Assays:
[1] = molecular target: Activin receptor type-1 (Homo sapiens) (UniProt Q04771); conditions: Compound concentration 1000.0 nM
[2] = molecular target: Cytoplasmic tyrosine-protein kinase BMX (Homo sapiens) (UniProt P51813); conditions: Compound concentration 1000.0 nM
[3] = molecular target: Serine/threonine-protein kinase BRSK2 (Homo sapiens) (UniProt Q8IWQ3); conditions: Compound concentration 1000.0 nM
[4] = molecular target: Tyrosine-protein kinase BTK (Homo sapiens) (UniProt Q06187); conditions: Compound concentration 1000.0 nM
[5] = molecular target: Calcium/calmodulin-dependent protein kinase type II subunit alpha (Homo sapiens) (UniProt Q9UQM7); conditions: Compound concentration 1000.0 nM
[6] = molecular target: Cyclin-dependent kinase 5 (Homo sapiens) (UniProt Q00535); conditions: Compound concentration 1000.0 nM
[7] = molecular target: Dual specificity tyrosine-phosphorylation-regulated kinase 1B (Homo sapiens) (UniProt Q9Y463); conditions: Compound concentration 1000.0 nM
[8] = system: Epidermal growth factor receptor (Homo sapiens), P00533 [UNDEFINED MUTATION]; conditions: Compound concentration 1000.0 nM
[9] = molecular target: Ephrin type-A receptor 3 (Homo sapiens) (UniProt P29320); conditions: Compound concentration 1000.0 nM
[10] = molecular target: Receptor tyrosine-protein kinase erbB-3 (Homo sapiens) (UniProt P21860); conditions: Compound concentration 1000.0 nM
[11] = molecular target: Tyrosine-protein kinase Fer (Homo sapiens) (UniProt P16591); conditions: Compound concentration 1000.0 nM
[12] = molecular target: Fibroblast growth factor receptor 1 (Homo sapiens) (UniProt P11362); conditions: Compound concentration 1000.0 nM
[13] = system: Receptor-type tyrosine-protein kinase FLT3 (Homo sapiens), P36888 [D835H]; conditions: Compound concentration 1000.0 nM
[14] = system: Receptor-type tyrosine-protein kinase FLT3 (Homo sapiens), P36888 [UNDEFINED MUTATION]; conditions: Compound concentration 1000.0 nM
[15] = molecular target: Rhodopsin kinase GRK1 (Homo sapiens) (UniProt Q15835); conditions: Compound concentration 1000.0 nM
[16] = molecular target: Tyrosine-protein kinase ITK/TSK (Homo sapiens) (UniProt Q08881); conditions: Compound concentration 1000.0 nM
[17] = molecular target: Mitogen-activated protein kinase 9 (Homo sapiens) (UniProt P45984); conditions: Compound concentration 1000.0 nM
[18] = system: Mast/stem cell growth factor receptor Kit (Homo sapiens), P10721 [V559D,V654A]; conditions: Compound concentration 1000.0 nM
[19] = molecular target: MAP kinase-activated protein kinase 5 (Homo sapiens) (UniProt Q8IW41); conditions: Compound concentration 1000.0 nM
[20] = molecular target: Dual specificity mitogen-activated protein kinase kinase 2 (Homo sapiens) (UniProt P36507); conditions: Compound concentration 1000.0 nM
[21] = molecular target: MAP kinase-interacting serine/threonine-protein kinase 1 (Homo sapiens) (UniProt Q9BUB5); conditions: Compound concentration 1000.0 nM
[22] = molecular target: Serine/threonine-protein kinase Nek11 (Homo sapiens) (UniProt Q8NG66); conditions: Compound concentration 1000.0 nM
[23] = molecular target: Serine/threonine-protein kinase Nek5 (Homo sapiens) (UniProt Q6P3R8); conditions: Compound concentration 1000.0 nM
[24] = molecular target: Serine/threonine-protein kinase PAK 1 (Homo sapiens) (UniProt Q13153); conditions: Compound concentration 1000.0 nM
[25] = molecular target: Serine/threonine-protein kinase PAK 3 (Homo sapiens) (UniProt O75914); conditions: Compound concentration 1000.0 nM
[26] = system: Phosphatidylinositol 4,5-bisphosphate 3-kinase catalytic subunit alpha isoform (Homo sapiens), P42336 [E545K]; conditions: Compound concentration 1000.0 nM
[27] = system: Phosphatidylinositol 4,5-bisphosphate 3-kinase catalytic subunit alpha isoform (Homo sapiens), P42336 [H1047L]; conditions: Compound concentration 1000.0 nM
[28] = system: Phosphatidylinositol 4,5-bisphosphate 3-kinase catalytic subunit alpha isoform (Homo sapiens), P42336 [M1043I]; conditions: Compound concentration 1000.0 nM
[29] = molecular target: Phosphatidylinositol 4-phosphate 5-kinase type-1 gamma (Homo sapiens) (UniProt O60331); conditions: Compound concentration 1000.0 nM
[30] = molecular target: Serine/threonine-protein kinase N2 (Homo sapiens) (UniProt Q16513); conditions: Compound concentration 1000.0 nM
[31] = molecular target: Serine/threonine-protein kinase PLK3 (Homo sapiens) (UniProt Q9H4B4); conditions: Compound concentration 1000.0 nM
[32] = molecular target: Dual serine/threonine and tyrosine protein kinase (Homo sapiens) (UniProt Q6XUX3); conditions: Compound concentration 1000.0 nM
[33] = molecular target: Ribosomal protein S6 kinase alpha-5 (Homo sapiens) (UniProt O75582); conditions: Compound concentration 1000.0 nM
[34] = molecular target: Ribosomal protein S6 kinase alpha-5 (Homo sapiens) (UniProt O75582); conditions: Compound concentration 1000.0 nM; remark: listed apart in the source
[35] = molecular target: Serine/threonine-protein kinase Sgk2 (Homo sapiens) (UniProt Q9HBY8); conditions: Compound concentration 1000.0 nM
[36] = molecular target: TGF-beta receptor type-2 (Homo sapiens) (UniProt P37173); conditions: Compound concentration 1000.0 nM
[37] = molecular target: High affinity nerve growth factor receptor (Homo sapiens) (UniProt P04629); conditions: Compound concentration 1000.0 nM
[38] = molecular target: Wee1-like protein kinase (Homo sapiens) (UniProt P30291); conditions: Compound concentration 1000.0 nM
[39] = molecular target: Serine/threonine-protein kinase 32C (Homo sapiens) (UniProt Q86UX6); conditions: Compound concentration 1000.0 nM
[40] = molecular target: 5-hydroxytryptamine receptor 2B (Homo sapiens) (UniProt P41595); conditions: Compound concentration 10.0 uM
[41] = molecular target: GABA-A receptor; anion channel (Rattus norvegicus) (UniProt O09028+P15431+P18506+P18508+P19969+P20236+P23574+P23576+P28471+P28473+P30191+P62813+P63079+P63138+Q91ZM7+Q9ES14); conditions: Compound concentration 10.0 uM
[42] = molecular target: Histamine H1 receptor (Homo sapiens) (UniProt P35367); conditions: Compound concentration 10.0 uM
[43] = molecular target: Histamine H3 receptor (Homo sapiens) (UniProt Q9Y5N1); conditions: Compound concentration 10.0 uM

Chain of Ribosomal protein S6 kinase alpha-5 (Homo sapiens) (O75582 whole entry, looked up): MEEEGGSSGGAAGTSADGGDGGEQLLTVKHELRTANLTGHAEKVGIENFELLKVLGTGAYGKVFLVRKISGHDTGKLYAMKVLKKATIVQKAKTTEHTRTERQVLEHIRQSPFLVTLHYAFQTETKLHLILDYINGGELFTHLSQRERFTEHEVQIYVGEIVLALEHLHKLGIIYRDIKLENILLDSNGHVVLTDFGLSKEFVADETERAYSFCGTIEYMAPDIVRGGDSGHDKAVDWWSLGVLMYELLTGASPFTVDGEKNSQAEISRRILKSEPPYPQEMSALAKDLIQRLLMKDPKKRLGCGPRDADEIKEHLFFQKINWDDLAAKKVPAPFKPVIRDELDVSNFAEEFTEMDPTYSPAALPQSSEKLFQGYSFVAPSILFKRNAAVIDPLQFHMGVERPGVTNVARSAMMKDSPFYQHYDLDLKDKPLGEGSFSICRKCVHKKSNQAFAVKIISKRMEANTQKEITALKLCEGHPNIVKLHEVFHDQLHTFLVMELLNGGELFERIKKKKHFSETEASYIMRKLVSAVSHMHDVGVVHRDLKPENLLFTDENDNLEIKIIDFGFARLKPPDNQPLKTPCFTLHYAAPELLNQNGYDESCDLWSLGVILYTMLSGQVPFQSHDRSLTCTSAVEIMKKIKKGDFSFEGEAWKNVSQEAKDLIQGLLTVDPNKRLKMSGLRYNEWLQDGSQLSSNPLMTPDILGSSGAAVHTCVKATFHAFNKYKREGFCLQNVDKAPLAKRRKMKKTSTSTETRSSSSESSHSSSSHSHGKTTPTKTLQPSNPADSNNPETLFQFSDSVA
Chain of Phosphatidylinositol 4,5-bisphosphate 3-kinase catalytic subunit alpha isoform (Homo sapiens), P42336 [H1047L] (P42336 whole entry H1047L, canonical isoform): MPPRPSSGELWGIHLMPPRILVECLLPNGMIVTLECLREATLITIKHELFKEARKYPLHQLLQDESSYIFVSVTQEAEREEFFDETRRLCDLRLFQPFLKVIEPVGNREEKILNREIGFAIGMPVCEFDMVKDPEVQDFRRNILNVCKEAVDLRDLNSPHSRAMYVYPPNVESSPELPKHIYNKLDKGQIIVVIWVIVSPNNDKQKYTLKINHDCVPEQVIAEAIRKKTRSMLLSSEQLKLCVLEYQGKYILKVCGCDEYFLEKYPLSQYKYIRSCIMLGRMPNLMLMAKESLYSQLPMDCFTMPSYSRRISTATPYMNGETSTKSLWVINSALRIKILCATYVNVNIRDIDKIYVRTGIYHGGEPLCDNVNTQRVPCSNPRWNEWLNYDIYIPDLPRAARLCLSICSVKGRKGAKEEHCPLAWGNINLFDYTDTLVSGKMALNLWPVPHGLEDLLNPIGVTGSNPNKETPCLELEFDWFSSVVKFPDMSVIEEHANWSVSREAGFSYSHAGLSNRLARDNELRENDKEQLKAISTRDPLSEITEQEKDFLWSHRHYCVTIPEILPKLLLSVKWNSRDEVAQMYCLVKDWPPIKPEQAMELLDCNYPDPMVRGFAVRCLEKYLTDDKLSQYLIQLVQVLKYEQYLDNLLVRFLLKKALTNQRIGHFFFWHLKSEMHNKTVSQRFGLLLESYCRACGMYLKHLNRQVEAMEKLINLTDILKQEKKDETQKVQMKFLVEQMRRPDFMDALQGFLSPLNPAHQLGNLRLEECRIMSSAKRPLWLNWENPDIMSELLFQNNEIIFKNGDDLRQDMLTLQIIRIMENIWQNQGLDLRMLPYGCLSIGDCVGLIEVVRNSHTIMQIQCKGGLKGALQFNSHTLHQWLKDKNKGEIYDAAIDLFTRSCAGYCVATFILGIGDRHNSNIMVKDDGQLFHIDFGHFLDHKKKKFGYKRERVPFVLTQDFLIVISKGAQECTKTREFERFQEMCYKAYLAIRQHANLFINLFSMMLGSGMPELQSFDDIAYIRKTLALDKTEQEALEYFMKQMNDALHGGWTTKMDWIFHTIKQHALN
Chain of Serine/threonine-protein kinase Sgk2 (Homo sapiens) (Q9HBY8 whole entry): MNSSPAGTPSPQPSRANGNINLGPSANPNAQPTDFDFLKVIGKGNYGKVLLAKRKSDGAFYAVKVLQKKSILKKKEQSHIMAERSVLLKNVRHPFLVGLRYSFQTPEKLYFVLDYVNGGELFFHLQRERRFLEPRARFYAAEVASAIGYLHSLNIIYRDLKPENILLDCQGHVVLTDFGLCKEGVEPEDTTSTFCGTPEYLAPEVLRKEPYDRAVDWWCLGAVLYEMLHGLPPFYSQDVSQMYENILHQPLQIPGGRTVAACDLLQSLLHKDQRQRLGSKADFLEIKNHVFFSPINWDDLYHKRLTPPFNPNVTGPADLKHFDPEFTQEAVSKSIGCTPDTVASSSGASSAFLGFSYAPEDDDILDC
Chain of Mast/stem cell growth factor receptor Kit (Homo sapiens), P10721 [V559D,V654A] (P10721 whole entry V559D/V654A): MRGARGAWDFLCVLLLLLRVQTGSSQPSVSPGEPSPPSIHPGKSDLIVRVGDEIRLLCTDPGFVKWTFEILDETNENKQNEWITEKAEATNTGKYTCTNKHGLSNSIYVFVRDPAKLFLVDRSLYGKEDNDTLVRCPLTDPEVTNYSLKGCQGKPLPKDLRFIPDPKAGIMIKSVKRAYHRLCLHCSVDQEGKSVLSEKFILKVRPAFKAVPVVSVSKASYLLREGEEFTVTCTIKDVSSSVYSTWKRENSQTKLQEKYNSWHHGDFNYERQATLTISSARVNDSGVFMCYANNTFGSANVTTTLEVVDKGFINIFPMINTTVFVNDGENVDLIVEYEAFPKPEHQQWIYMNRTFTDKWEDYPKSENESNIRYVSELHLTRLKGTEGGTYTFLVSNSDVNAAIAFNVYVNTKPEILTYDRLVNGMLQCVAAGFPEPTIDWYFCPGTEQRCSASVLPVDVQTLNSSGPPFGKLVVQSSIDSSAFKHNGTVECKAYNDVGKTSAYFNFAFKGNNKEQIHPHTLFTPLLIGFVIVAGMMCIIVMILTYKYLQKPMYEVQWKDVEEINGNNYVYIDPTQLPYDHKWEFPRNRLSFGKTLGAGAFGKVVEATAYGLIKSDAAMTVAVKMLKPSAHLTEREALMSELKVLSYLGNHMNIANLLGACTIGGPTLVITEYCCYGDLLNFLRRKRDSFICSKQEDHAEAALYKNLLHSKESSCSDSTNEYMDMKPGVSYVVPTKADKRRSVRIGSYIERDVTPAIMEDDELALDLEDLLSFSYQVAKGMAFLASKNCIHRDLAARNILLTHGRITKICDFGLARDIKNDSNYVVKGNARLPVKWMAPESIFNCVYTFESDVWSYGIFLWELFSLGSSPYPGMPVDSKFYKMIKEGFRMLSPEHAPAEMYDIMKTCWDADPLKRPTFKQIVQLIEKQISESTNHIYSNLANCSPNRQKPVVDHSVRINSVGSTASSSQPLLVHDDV
Chain of Epidermal growth factor receptor (Homo sapiens), P00533 [UNDEFINED MUTATION] (P00533 whole entry, looked up, change not shown): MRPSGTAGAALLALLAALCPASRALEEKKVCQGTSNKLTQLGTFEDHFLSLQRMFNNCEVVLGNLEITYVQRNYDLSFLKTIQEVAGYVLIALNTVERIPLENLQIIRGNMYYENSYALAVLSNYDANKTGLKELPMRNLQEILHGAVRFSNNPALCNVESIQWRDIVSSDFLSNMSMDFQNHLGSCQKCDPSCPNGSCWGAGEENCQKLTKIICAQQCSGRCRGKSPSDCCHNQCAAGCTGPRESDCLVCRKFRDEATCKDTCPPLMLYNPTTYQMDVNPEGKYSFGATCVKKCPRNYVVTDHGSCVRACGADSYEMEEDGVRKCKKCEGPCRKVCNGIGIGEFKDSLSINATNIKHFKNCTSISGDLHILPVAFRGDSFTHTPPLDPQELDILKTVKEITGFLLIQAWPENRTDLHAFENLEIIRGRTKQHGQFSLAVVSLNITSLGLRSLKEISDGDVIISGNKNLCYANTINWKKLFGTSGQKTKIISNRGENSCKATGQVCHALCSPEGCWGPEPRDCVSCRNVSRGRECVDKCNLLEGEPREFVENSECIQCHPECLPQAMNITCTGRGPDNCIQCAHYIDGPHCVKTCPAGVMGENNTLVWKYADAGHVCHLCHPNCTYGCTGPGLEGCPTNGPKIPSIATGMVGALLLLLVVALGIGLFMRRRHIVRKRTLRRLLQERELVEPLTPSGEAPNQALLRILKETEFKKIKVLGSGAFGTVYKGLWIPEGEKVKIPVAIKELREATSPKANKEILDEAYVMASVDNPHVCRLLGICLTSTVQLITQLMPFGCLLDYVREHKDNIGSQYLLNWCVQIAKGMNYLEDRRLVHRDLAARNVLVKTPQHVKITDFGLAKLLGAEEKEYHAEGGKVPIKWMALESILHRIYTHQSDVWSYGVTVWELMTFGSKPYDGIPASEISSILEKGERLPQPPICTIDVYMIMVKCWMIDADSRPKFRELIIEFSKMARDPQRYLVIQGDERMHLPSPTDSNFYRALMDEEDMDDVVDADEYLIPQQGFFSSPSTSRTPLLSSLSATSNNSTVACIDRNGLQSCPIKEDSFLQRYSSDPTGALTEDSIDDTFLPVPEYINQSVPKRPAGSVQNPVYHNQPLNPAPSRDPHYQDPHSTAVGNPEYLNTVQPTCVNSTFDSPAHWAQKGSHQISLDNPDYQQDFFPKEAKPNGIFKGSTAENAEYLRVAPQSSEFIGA
Chain of TGF-beta receptor type-2 (Homo sapiens) (P37173 whole entry): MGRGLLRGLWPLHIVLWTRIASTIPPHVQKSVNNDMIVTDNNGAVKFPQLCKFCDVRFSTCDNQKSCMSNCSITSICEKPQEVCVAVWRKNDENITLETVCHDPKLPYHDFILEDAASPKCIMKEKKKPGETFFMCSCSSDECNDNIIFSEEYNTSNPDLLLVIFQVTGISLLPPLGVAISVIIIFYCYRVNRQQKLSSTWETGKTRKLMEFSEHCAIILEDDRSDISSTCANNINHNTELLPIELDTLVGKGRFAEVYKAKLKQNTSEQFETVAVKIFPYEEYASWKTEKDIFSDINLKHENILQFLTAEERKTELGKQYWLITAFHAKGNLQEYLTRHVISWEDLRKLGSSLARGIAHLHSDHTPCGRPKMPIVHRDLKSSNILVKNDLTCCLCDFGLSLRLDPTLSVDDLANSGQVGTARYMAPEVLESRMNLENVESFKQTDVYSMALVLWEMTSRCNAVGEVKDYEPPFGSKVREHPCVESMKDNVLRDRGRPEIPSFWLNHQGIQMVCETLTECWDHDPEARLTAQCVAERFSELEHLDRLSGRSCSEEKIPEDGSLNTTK

N#CC1(c2ccccn2)CCN(Cc2cc(C(=O)O)c(=O)n3ccccc23)CC1 [MSD-M1PAM]
inactive: residual activity [1] 96% | residual activity [2] 88% | residual activity [3] 100% | residual activity [4] 100% | residual activity [5] 83% | residual activity [6] 100% | residual activity [7] 98% | residual activity [8] 97% | residual activity [9] 75% | residual activity [10] 100% | residual activity [11] 100% | residual activity [12] 98% | residual activity [13] 100% | residual activity [14] 94% | residual activity [15] 84% | residual activity [16] 100% | residual activity [17] 83% | residual activity [18] 100% | residual activity [19] 56% | residual activity [20] 100% | residual activity [21] 85% | residual activity [22] 89% | residual activity [23] 100% | residual activity [24] 86% | residual activity [25] 100% | residual activity [26] 100% | residual activity [27] 80% | residual activity [28] 91% | residual activity [29] 89% | residual activity [30] 100% | residual activity [31] 85% | residual activity [32] 75% | residual activity [33] 100% | residual activity [34] 83% | residual activity [35] 86% | residual activity [36] 93% | residual activity [37] 88% | residual activity [38] 99% | residual activity [39] 72% | inhibition [40] 3.23% | inhibition [41] 20.2% | inhibition [42] 28.4% | inhibition [43] 4.08%

N#CC1(c2ccccn2)CCN(Cc2cc(C(=O)N3CCCC3)c(=O)n3ccccc23)CC1
inactive: residual activity [1] 83% | residual activity [2] 84% | residual activity [3] 77% | residual activity [4] 100% | residual activity [5] 84% | residual activity [6] 92% | residual activity [7] 53% | residual activity [8] 77% | residual activity [9] 100% | residual activity [10] 93% | residual activity [11] 89% | residual activity [12] 93% | residual activity [13] 87% | residual activity [14] 90% | residual activity [15] 85% | residual activity [16] 95% | residual activity [17] 97% | residual activity [18] 100% | residual activity [19] 100% | residual activity [20] 91% | residual activity [21] 100% | residual activity [22] 63% | residual activity [23] 82% | residual activity [24] 100% | residual activity [25] 100% | residual activity [26] 76% | residual activity [27] 100% | residual activity [28] 72% | residual activity [29] 68% | residual activity [30] 88% | residual activity [31] 100% | residual activity [32] 80% | residual activity [33] 88% | residual activity [34] 90% | residual activity [35] 100% | residual activity [36] 93% | residual activity [37] 100% | residual activity [38] 74% | residual activity [39] 100% | inhibition [40] 5.44% | inhibition [41] 23.2% | inhibition [42] 9.7% | inhibition [43] 11.2%
